Measured values from US20130156708A1, “PHENOL DERIVATIVES AS ANTIMICROBIAL AGENTS” (Symrise AG, priority 2011, published 2013).
Converted amounts (≈) assume the structure as drawn.

Assays:
[1] = Taste test in alcohol free mouth wash formulation; conditions: compound 0.1%, peppermint Optamint Flavor 0.15%, versus sample without compound
Source text: The compounds of formulae (IIa) and (IIIa) were further tested in oral care formulations. In particular, an alcohol free mouth wash formulation in combination with a standard peppermint flavor (Optamint® Flavor, dosage 0.15%) plus compound of formula (IIa) or (IIIa), respectively, (dosage 0.1%) was compared with a sample without any compound of formula (I), but being otherwise identically composed. The taste impressions of the samples including the respective compound of formula (IIa) or (IIIa) are described as follows: […]

[2] = system: S. aureus; assay: Synergistic activity (Kull) in fast time-kill experiments, S. aureus; format: cell-based, Staphylococcus aureus
Protocol: (§1) This protocol gives an exact description on how to perform a fast time-kill experiment. Fast time-kill experiments serve to determine the antimicrobial kill activity of a specific substance or substance mixture against a particular microorganism or a mixture of microorganisms.
(§2) Microorganisms are grown in suitable growth medium allowing for exponential growth. For E. coli, Salmonella spp., S. aureus, P. aeruginosa, and for C. albicans tryptic soy broth medium is used. One hundred ml Erlenmeyer flasks containing 20 ml growth medium are inoculated with 10^5 to 10^8 microbial cells/ml and incubated overnight under continuous shaking (120 rpm) at a temperature allowing for exponential growth, usually between 20 and 37° C. The temperature is chosen in such a way to ensure the exponential growth for the used microorganisms, for E. coli, Salmonella spp., S. aureus, P. aeruginosa, and for C. albicans 37° C. is used.
(§3) After reaching the stationary growth phase, 100 μl of this culture are transferred in a second Erlenmeyer flask containing 20 ml of the same growth medium. This culture is shaken for further (preferably to up to 7 hours) under identical conditions as described above. Subsequently, this culture is diluted in the same growth medium to 10^5 to 10^9, preferably to 10^6 to 10^8 cells/ml. With this suspension of microorganism (named “microorganism working suspension”) the time-kill test is performed.
(§4) Test substances are dissolved in DMSO, EtOH and/or H2O, preferably in H2O, to prepare a 100× concentrated stock solution. In case the test substance is not completely soluble in H2O, the solvents are chosen in to ensure a complete dissolution of the test substance, the chosen concentration of DMSO and EtOH being as low as possible. For solid substances, complete dissolution has to be ensured. […] Preferably, the concentrations of the test substances in the 100× concentrated stock solution are between 1 and 100%, corresponding to 0.01 to 1% in the final test. The amount of the 100× concentrated stock solution in the final test should not exceed 1% in order to limit the concentration of DMSO or EtOH to 1% in the final test.
(§5) Fast time-kill tests are performed in 1000 μl volumes in 1.5 ml plastic reaction tubes (Eppendorf). The test is started by mixing (in this particular order) 100 μl microorganism working suspension with 890 μl tryptic soy broth growth medium containing 0.1% Tween® 80 and 10 μl 100× concentrated stock solution of test substances. Controls are included that are prepared as described above, but using 100× stock solution without test substances. During the test, tubes are incubated at the same temperature as the microorganisms were grown, usually 20 to 37° C. (for E. coli, Salmonella spp., S. aureus, P. aeruginosa, and for C. albicans 37° C. is used) in an Eppendorf Thermomixer and are vigorously shaken at 1400 rpm.
(§6) Samples are taken from reaction tubes after defined time intervals (preferably 1, 2 and 5 min) to determine the number of surviving microorganisms. At time 0 (immediately after starting the test) samples are taken from control tubes to determine the initial number of microorganisms in the test. The number of surviving microorganisms is determined by aspiring 100 μl volumes from reaction tubes and mixing it immediately with 900 μl growth medium to prepare a 10^−1 dilution. Further dilutions are prepared in this way from 10^−2 to 10^−4. One hundred μl volumes of the different dilutions are plated on tryptic soy broth agar plates and incubated for up to 48 h at the same temperature as the microorganisms were grown, usually 20 to 37° C. (for E. coli, Salmonella spp., S. aureus, P. aeruginosa, and for C. albicans 37° C. is used). Colonies grown on plates are counted and the numbers of surviving microorganisms are calculated for the different treatments and time points. For substances with low minimum inhibitory concentrations (MIC), sufficient dilution below the concentration of the MIC value has to be ensured.

[3] = system: microorganisms relevant for home and personal care; assay: Minimum inhibitory concentration, further microorganisms of Table 2; format: cell-based
Source text: (§7) Assessment of minimum inhibitory concentrations of thymol and 4-prenylphenol against versus microorganisms relevant for home and personal care:
(§8) The results of comparative assessment of minimum inhibitor concentration for both thymol and 4-prenylphenol are listed in Table 2.

[4] = system: Aspergillus niger; assay: Minimum inhibitory concentration, A. niger; format: cell-based; conditions: for MIC: Aspergillus niger
[5] = system: C. albicans; assay: Fast time-kill test, inactivation time for 99.9% kill, C. albicans; format: cell-based, Candida albicans; conditions: Candiada albicans; 0.1% concentration; averages of four independent experiments
Protocol: as §1, with “microorganisms. To kill (synonymous: to inactivate) a microorganism means that after the treatment, the microorganism has permanently lost its capacity to grow or to replicate.” for “microorganisms.”
as §2, §3
(§9) Test substances are dissolved in DMSO, EtOH and/or H2O, preferably in H2O, to prepare a 100× concentrated stock solution. […]
(§10) Samples are taken from reaction tubes after defined time intervals (preferably 1, 2 and 5 min) to determine the number of surviving microorganisms. […] The number of surviving microorganisms is determined by aspiring 100 μl volumes from reaction tubes and mixing it immediately with 900 μl growth medium to prepare a 10^−1 dilution. […]

[6] = Taste test in silica toothpaste formulation; conditions: compound 0.1%, spearmint Optamint Flavor 1%, versus sample without compound
Source text: A silica toothpaste formulation in combination with a standard spearmint flavour (Optamint® Flavor, dosage 1%) plus the respective compound of formula (IIa) or (IIb) dosage 0.1% was compared to a sample without such compound of formula (I). The taste impressions of the sample including the compound of formula (IIa) or (IIb), respectively, are described as follows: […]

[7] = system: E. coli; assay: Synergistic activity (Kull) in fast time-kill experiments, E. coli; format: cell-based, Escherichia coli
Protocol: as §1, §2, §3, §4, §5, §6

[8] = system: S. aureus; assay: Minimum inhibitory concentration, S. aureus; format: cell-based, Staphylococcus aureus; conditions: for MIC: Staphylococcus aureus
Source text: as §7, §8

[9] = system: C. albicans; assay: Minimum inhibitory concentration, C. albicans; format: cell-based, Candida albicans; conditions: for MIC: Candida albicans
Source text: as §7, §8

[10] = system: S. aureus; assay: Fast time-kill test, inactivation time for 99.9% kill, S. aureus; format: cell-based; conditions: Staphylococcus aureus; 0.1% concentration; averages of four independent experiments
Protocol: as §1, with “microorganisms. To kill (synonymous: to inactivate) a microorganism means that after the treatment, the microorganism has permanently lost its capacity to grow or to replicate.” for “microorganisms.”
as §2, §3, §9, §10

[11] = system: E. coli; assay: Fast time-kill test, inactivation time for 99.9% kill, E. coli; format: cell-based; conditions: Escherichia coli; 0.1% concentration; averages of four independent experiments
Protocol: as §1, with “microorganisms. To kill (synonymous: to inactivate) a microorganism means that after the treatment, the microorganism has permanently lost its capacity to grow or to replicate.” for “microorganisms.”
as §2, §3, §9, §10

[12] = system: E. coli; assay: Minimum inhibitory concentration, E. coli; format: cell-based, Escherichia coli; conditions: for MIC: Escherichia coli
Source text: as §7, §8

[13] = system: E. coli, S. aureus and C. albicans; assay: Fast time-kill test, statements of the text over all investigated microorganisms; format: cell-based; conditions: 0.1% concentration, span over E. coli, averages of four independent experiments
Protocol: as §1, with “microorganisms. To kill (synonymous: to inactivate) a microorganism means that after the treatment, the microorganism has permanently lost its capacity to grow or to replicate.” for “microorganisms.”
as §2, with “The temperature is chosen in such a way to ensure the exponential growth for the used microorganisms, for E. coli, Salmonella spp., S. aureus, P. aeruginosa, and for C. albicans 37° C. is used.” left out
as §10

SMILES | numbing/tingling feeling on the tongue [1] | MIC ([3]; Corynebacterium xerosis) [µg/mL] | MIC ([3]; Fusobacterium nucleatum) [µg/mL] | MIC ([3]; Malassezia furfur) [µg/mL] | MIC ([3]; Porphyromonas gingivalis) [µg/mL] | MIC ([3]; Pseudomonas aeruginosa) [µg/mL] | MIC ([3]; Salmonalla enteritidis) [µg/mL] | MIC ([3]; Staphylococcus epidermidis) [µg/mL] | MIC ([3]; Streptococcus mutans) [µg/mL] | MIC [4] [µg/mL] | Inactivation time for 99.9% kill [5] [min] | numbing/tingling feeling on the tongue [6] | MIC [8] [µg/mL] | MIC [9] [µg/mL] | Inactivation time for 99.9% kill [10] [min] | Inactivation time for 99.9% kill [11] [min] | MIC [12] [µg/mL] | further results
CC(C)=CCc1ccccc1O [IIIa, 2-(3-Methylbut-2-enyl)phenol] | clearly leaves a numbing/tingling feeling on the tongue | – | – | – | – | – | – | – | – | – | – | – | – | – | – | – | – | –
CC(C)=CCc1ccc(O)cc1 [IIa, 4-(3-Methylbut-2-enyl)phenol] | clearly leaves a numbing/tingling feeling on the tongue | 125 (≈ 771 µM) | 64 (≈ 394 µM) | 1000 (≈ 6160 µM) | 64 (≈ 394 µM) | > 1000 | 125 (≈ 771 µM) | 125 (≈ 771 µM) | 125 (≈ 771 µM) | 64 (≈ 394 µM) | 1.4 | clearly leaves a numbing/tingling feeling on the tongue | 125 (≈ 771 µM) | 125 (≈ 771 µM) | 1.2 | 1.3 | 125 (≈ 771 µM) | Inactivation rate k ([2]; 4-Prenylphenol 400 ppm): 1.2 min⁻¹; Inactivation time T99.9% ([2]; 4-Prenylphenol 400 ppm): 5.6 min; Reduction of surviving microorganisms ([2]; 4-Prenylphenol 400 ppm): 0.29; antimicrobial activity against the mould A. niger [4]: strong antimicrobial activity; Inactivation rate k ([7]; 4-Prenylphenol 250 ppm): 0.94 min⁻¹; Inactivation time T99.9% ([7]; 4-Prenylphenol 250 ppm): 7.4 min; Reduction of surviving microorganisms ([7]; 4-Prenylphenol 250 ppm): 0.39; minimum inhibitory concentration compared with Thymol ([8]; S. aureus): equal to the one of Thymol; minimum inhibitory concentration compared with Thymol ([9]; C. albicans): a factor of two lower; minimum inhibitory concentration compared with Thymol ([12]; E. coli): equal to the one of Thymol
C=C(C)CCc1ccc(O)cc1 [IIb, 4-(3-Methylbut-3-enyl)phenol] | – | – | – | – | – | – | – | – | – | – | – | clearly leaves a numbing/tingling feeling on the tongue | – | – | – | – | – | –
COC(=O)c1ccc(O)cc1 [Methylparaben, reference compound] | – | – | – | – | – | – | – | – | – | – | – | – | – | – | – | – | – | Inactivation rate k ([2]; Methylparaben 5000 ppm): 0.40 min⁻¹; Inactivation time T99.9% ([2]; Methylparaben 5000 ppm): 18.1 min; Reduction of surviving microorganisms ([2]; Methylparaben 5000 ppm): 0.67; Inactivation rate k ([7]; Methylparaben 2500 ppm): 0.09 min⁻¹; Inactivation time T99.9% ([7]; Methylparaben 2500 ppm): 89.1 min; Reduction of surviving microorganisms ([7]; Methylparaben 2500 ppm): 0.91
Cc1ccc(C(C)C)c(O)c1 [Thymol, reference compound] | – | 125 (≈ 832 µM) | 125 (≈ 832 µM) | 1000 (≈ 6660 µM) | 125 (≈ 832 µM) | 1000 (≈ 6660 µM) | 250 (≈ 1660 µM) | 250 (≈ 1660 µM) | 250 (≈ 1660 µM) | 1000 (≈ 6660 µM) | 8.7 | – | 125 (≈ 832 µM) | 250 (≈ 1660 µM) | 4.9 | 4.1 | 125 (≈ 832 µM) | –
Oc1cc(Cl)ccc1Oc1ccc(Cl)cc1Cl [Triclosan] | – | – | – | – | – | – | – | – | – | – | >100 | – | – | – | >100 | >100 | – | Inactivation time for a 99.9% kill [13]: > 100 min
